From patent US6676954B2, “Controlled release compositions” (Rohm and Haas Company, priority 2000, dated 2004)
Marks after values point to notes of the source that are not given here.

Experiments:
[1] = Relative release test: 3-isothiazolone released from the solid composition into water with 0.3% sodium diethylhexylsulfosuccinate (HPLC); format: physicochemical; settings: no paint
Protocol: The amount of 3-isothiazolone compound released from each controlled release composition was determined according to the following general procedure. A weighed amount of controlled release composition (0.014 g, prepared as described in Example 1) was placed in a 250 mL sample jar. To the jar was then added 200 mL of water containing 0.3% of sodium diethylhexylsulfosuccinate. The solution was then gently stirred to ensure no foam was formed. Aliquots (0.5 mL) were taken at 5 and 24 hours and transferred to a microcentrifuge tube. Each aliquot was then centrifuged at 14,000 rpm for 3 minutes. The supernatant was then removed and analyzed by HPLC (high pressure liquid chromatography) for the amount of the 3-isothiazolone compound. The microcentrifuge tube was then washed with 0.5 mL of water containing 0.3% of sodium diethylhexylsulfosuccinate and the wash liquid added to the sample jar. This ensured that none of the particles removed during sampling was lost and that the volume in the jar remained constant.
The solid compositions were then evaluated using (1) the salt water leaching test as described in Example 3 and the relative release test (5-day) described in Example 2. […]

[2] = Salt water (synthetic-seawater) leaching test: 14C-labelled ITA remaining in the marine paint film; format: physicochemical
Protocol: The efficacy of the 3-isothiazolone/carbon-based adsorbent compositions of the present invention in a paint film was determined by a salt water (synthetic-seawater) leaching evaluation. An appropriate amount of 4,5-dichloro-2-n-octyl-3-isothiazolone (ITA), together with carbon-based adsorbent (C-1, C-2, C-3):
was added to 10 g of a marine antifouling paint formulation (2 different paint types, P-1 and P-2, see below) in a milling jar to provide a final 3-isothiazolone concentration of 2% based on total combined weight of the 3-isothiazolone/carbon-based adsorbent/paint formulation mixture. Paint films were then drawn on silanized microslides to a thickness of 0.076 mm (0.003 inch) for the rosin-based paint formulation (P-1) and to a thickness of 0.178 mm (0.007 inch) for the polishing type marine antifouling paint (P-2). The paint films were dried for 2 days and then the microslides were placed in a synthetic-seawater fish tank for 1 month. The synthetic-seawater was periodically circulated through a filter cartridge containing activated carbon and Celex™ 20 chelating agent (to remove 3-isothiazolone and copper ions). At various times the paint slides were removed and analyzed. The amount of 4,5-dichloro-2-n-octyl-3-isothiazolone remaining in the paint film after exposure to synthetic-seawater was determined by radioactive labeling (^14C-labeled 4,5-dichloro-2-n-octyl-3-isothiazolone).
The salt water leaching test and radioactive labeling measurements were conducted as follows: a small amount of ^14C-4,5-dichloro-2-n-octyl-3-isothiazolone was incorporated with ^12C-4,5-dichloro-2-n-octyl-3-isothiazolone into paint and the radioactivity of trace ^14C-molecules was measured by a Phosphorimager SI spectrometer (manufactured by Molecular Dynamics Co.); a ratio of 4×10^−5 for ^14C-4,5-dichloro-2-n-octyl-3-isothiazolone to every gram of ^12C-4,5-dichloro-2-n-octyl-3-isothiazolone was used.
The prepared slides were placed in synthetic-seawater prepared as follows: the following ingredients (20 liters deionized water, 1350 g NaCl, 225 g MgCl2.6H2O, and 321.6 g Na2B4O7.10H2O in 6 liters deionized water) were combined and adjusted to a pH of 8.2 with 1.0 M HCl solution, after which the total volume was made up to 30 liters with additional deionized water.
The solid compositions were then evaluated using (1) the salt water leaching test as described in Example 3 and the relative release test (5-day) described in Example 2. A summary of the performance of the three inorganic carriers (diatomaceous earth, aluminosilicate and magnesium silicate) relative to the carbon-based adsorbent (activated carbon) composition of the present invention is presented in Table 4.

[3] = paint P-1 (rosin-based), 2% ITA, synthetic seawater
[4] = paint P-2 (polishing type), 2% ITA, synthetic seawater

% 4,5-dichloro-2-n-octyl-3-isothiazolone retained (5-day surfactant solution) ([1]; 5-day release test, retention as stated in the text): 0% | 5 Day % Released ([1]; carrier loaded with 30% ITA, 5-day relative release test in surfactant solution): 100% | % ITA Retained in Paint Film, 0 Days [2, 3]: 100% | % ITA Retained in Paint Film, 7 Days [2, 3]: 82% | % ITA Retained in Paint Film, 14 Days (interpolated) ([2]; paint P-1 (rosin-based), 2% ITA, synthetic seawater, 14 days, values in are interpolated): (78) % | % ITA Retained in Paint Film, 30 Days [2, 3]: 70% | Salt Water Leaching Test (28 Days) (% Retained in Paint Film) ([2]; paint P-1, carrier loaded with 30% ITA, 28 days in synthetic seawater): 64% | % ITA Retained in Paint Film, 0 Days [2, 4]: 100% | % ITA Retained in Paint Film, 7 Days [2, 4]: 31-44* % | % ITA Retained in Paint Film, 21 Days ([2]; paint P-2 (polishing type), 2% ITA, synthetic seawater, 21 days): 18% | % ITA Retained in Paint Film, 30 Days [2, 4]: 13%
SMILES: CCCCCCCCn1sc(Cl)c(Cl)c1=O [None, 4,5-dichloro-2-n-octyl-3-isothiazolone]
